This note sets out measurements from patent US8802675B2, “Neuroprotective multifunctional compounds and pharmaceutical compositions comprising them” (priority 2009, dated 2014).

What all share (type): biochemical
Assay [1] concerns the target T1, total cholinesterase (ChE) (Rattus norvegicus, UniProt P37136).
T1 sequence (P37136 32-614): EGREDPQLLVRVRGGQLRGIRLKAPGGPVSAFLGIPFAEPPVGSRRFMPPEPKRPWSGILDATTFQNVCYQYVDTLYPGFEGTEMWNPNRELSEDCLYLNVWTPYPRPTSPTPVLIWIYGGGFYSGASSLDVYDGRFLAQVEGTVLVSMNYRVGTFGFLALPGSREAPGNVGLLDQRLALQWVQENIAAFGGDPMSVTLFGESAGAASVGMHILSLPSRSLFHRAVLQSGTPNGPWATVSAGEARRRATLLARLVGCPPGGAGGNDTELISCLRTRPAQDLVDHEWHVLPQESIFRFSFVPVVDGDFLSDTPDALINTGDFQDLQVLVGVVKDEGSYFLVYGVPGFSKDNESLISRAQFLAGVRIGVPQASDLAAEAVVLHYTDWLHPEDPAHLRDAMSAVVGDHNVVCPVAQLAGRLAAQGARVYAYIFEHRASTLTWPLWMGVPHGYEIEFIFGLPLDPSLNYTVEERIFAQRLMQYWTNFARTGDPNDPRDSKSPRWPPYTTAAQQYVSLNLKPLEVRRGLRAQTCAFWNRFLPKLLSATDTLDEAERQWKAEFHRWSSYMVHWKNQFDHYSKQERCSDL
As to the kind of experiment: Total cholinesterase inhibition in rat brain homogenates (Ellman). The method, then: Cholinesterase activity was determined in rat brain homogenate following incubation with varying concentrations of the multifunctional pro-chelators of the invention (also referred to herein as “carbamates”).
Ellman's colorimetric method was adapted for determination of total cholinesterase (ChE) and butyrylcholinesterase (BuChE) activities in rat brain homogenates. Brain tissue from adult Wistar rats was homogenized at 2% w/v (or 10% w/v, for BuChE) in 0.1 M sodium phosphate buffer, pH 7.4, with added NaCl 58.5 g/l and Triton X-100 0.05% v/v. Aliquots of homogenate (20 μl) were incubated with the test compounds for designed time intervals in phosphate buffer pH 7.4, before addition of 5,5′-dithiobis(2-nitrobenzoic) acid and either 1 mM acetylthiocholine iodide or 10 mM butyrylthiocholine iodide (Sigma, St. Louis, Mo.). The reaction was run at 37° C. in a final volume of […] in 96-well microplates and was followed at 412 nm for 5 min with a plate reader. In every experiment, cholinesterase-independent (nonspecific) substrate hydrolysis was determined by including one experimental group treated with tacrine 30 μM. Appropriate tissue and reagent blanks were also included. Reaction velocities were determined in three or four replicates per condition; these were averaged and expressed as percent activity relative to control (solvent), after subtracting the rate of nonspecific hydrolysis.
The results are the mean SEM, n=3 in triplicates. ND—not determined.
(Ellman's reagent forms a yellow product with free thiols.)

Assay [2] has as its system ChE from rat brain homogenates. As to the kind of experiment: Time course of total ChE inhibition at 1 μM versus rivastigmine. The conditions noted are these: for preincubation time to maximum (peak) inhibition on total ChE: 1 μM compound; for ChE inhibition compared with rivastigmine and other carbamates: 1 μM, time course. As for the experimental part:
The new carbamates of the present invention are expected to act as rivastigmine and inhibit ChE activity. […] Enzyme activity was determined with Ellman's colorimetric method after addition of substrate, and the results are shown in FIGS. 8A-8B.

For assay [3], the target named is AChE (Homo sapiens, UniProt P22303). The experiment in a line: Conversion of pro-chelator by AChE into active chelator (UV-vis and MS of extract). The conditions noted are these: extract from a solution of AChE titrated with metal salts. As for the experimental part:
When ZnCl2, or CuSO4 were titrated into the extract, two new bands at around 365 nm or 375 nm appeared, corresponding to the formation of […], respectively. […] This finding was reinforced by mass spectrometry analysis of the extract, which gave a value of m/z 227.22, corresponding to m/z of [M30+H]^+.
When FeCl3 or FeSO4 were titrated to an extract from a solution of AChE into which compound 23 was added, new bands at around 460 nm and 590 nm appeared exactly matching the absorption of HLA20−Fe in FIG. 2A. Titration of CuSO4 or ZnCl2 to the extract introduced new bands at around 370 nm or 360 nm, corresponding to the absorption of the complexes […], respectively.

SMILES strings stand for the structures. Read-outs that look alike come from different tables or passages of the source.

Chain of AChE (P22303 32-614): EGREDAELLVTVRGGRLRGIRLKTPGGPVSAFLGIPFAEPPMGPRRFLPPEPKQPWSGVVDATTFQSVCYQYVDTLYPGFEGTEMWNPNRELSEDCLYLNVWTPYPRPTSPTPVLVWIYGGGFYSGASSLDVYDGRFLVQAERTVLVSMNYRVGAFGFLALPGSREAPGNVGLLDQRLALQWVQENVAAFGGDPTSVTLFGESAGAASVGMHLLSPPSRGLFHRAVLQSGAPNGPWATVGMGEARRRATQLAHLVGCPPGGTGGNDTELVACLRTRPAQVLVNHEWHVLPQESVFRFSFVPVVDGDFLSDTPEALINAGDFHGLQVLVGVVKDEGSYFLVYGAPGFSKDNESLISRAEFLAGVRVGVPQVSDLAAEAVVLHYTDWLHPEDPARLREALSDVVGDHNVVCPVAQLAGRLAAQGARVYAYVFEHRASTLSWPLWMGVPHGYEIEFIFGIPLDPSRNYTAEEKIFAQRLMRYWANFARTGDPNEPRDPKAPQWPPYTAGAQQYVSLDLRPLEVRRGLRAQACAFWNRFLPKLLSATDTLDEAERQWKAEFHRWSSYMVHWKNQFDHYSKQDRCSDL

The term IC50 denotes the concentration that inhibits the measured activity by half. In assay [1] (rat brain homogenates, mean SEM, n=3 in triplicates), `C#CCN(C)Cc1ccc(OC(=O)N(C)CC)c2ncccc12` [Compound 3, 5-((methyl(propargyl)amino)methyl)quinolin-8-yl ethyl(methyl)carbamate] showed an IC50 of 9.8 µM. Moreover, in assay [2], the “preincubation time to maximum (peak) inhibition on total ChE” value is recorded as no more than 1.5 h; the “ChE inhibition compared with rivastigmine and other carbamates” value is given as “far less potent than the other carbamates”.
`C#CCN(C)Cc1ccc(OC(=O)N2CCCC2)c2ncccc12` [Compound 5, 5-((methyl(propargyl)amino)methyl)quinolin-8-yl pyrrolidine-1-carboxylate]: in assay [2], the “preincubation time to maximum (peak) inhibition on total ChE” value was no more than 3 h; the “ChE inhibition compared with rivastigmine and other carbamates” value is “far less potent than the other carbamates”.
For `C#CCN(C)Cc1ccc(OC(=O)N2CCN(Cc3ccccc3)CC2)c2ncccc12` [Compound 13, 5-((methyl(propargyl)amino)methyl)quinolin-8-yl 4-benzyl piperazine-1-carboxylate], the “ChE inhibition compared with rivastigmine and other carbamates” value in assay [2] is reported as “as potent as rivastigmine”. In addition, the “conversion by AChE to active chelator” value in assay [3] is reported as “converted by AChE back into M30”.
Take `C#CCC1CCN(Cc2ccc(OC(=O)N(C)C)c3ncccc23)CC1` [Compound 23, 5-((4-(propargyl)piperidin-1-yl)methyl)quinolin-8-yl dimethylcarbamate]: in assay [2], the “preincubation time to maximum (peak) inhibition on total ChE” value was found to be 2 h; the “ChE inhibition compared with rivastigmine and other carbamates” value was “increasingly greater inhibition”. Besides, the “conversion by AChE to active chelator” value in assay [3] is “converted compound 23 back into HLA20”.
The compound `C#CCN(C)Cc1ccc(O)c2ncccc12` [M30, reference compound] returned a half-inhibitory concentration (IC50) in assay [1] of 114 µM.
